Measured values: patent US7846469B2, “Reversible inhibition of sperm receptor synthesis for contraception” (The Penn State Research Foundation, priority 2006, dated 2010)
“And” between values parts separate entries of the source, which are not always exact repeats. Identical values can stand only once.

Key:
[1] = system: inner perivitelline membrane (85% ZPC protein); assay: Electron microscopy of inner perivitelline membrane of mature follicle from fed laying hens; format: in vivo, chicken; settings: 250 ppm nicarbazin treated feed
Description: FIG. 6 is an electron micrograph of a mature follicle from control (C) and nicarbazin treated (T) hens.
As a follow-up experiment, we fed a group of 6 laying hens the 250 ppm nicarbazin treated feed, in an attempt to reduce, but not eliminate, ZPC synthesis. Egg membranes were collected from laid eggs and the most mature follicle dissected from both treated and control hens. The membranes were fixed with osmium tetroxide, sectioned via microtome and viewed with electron microscopy.
This micrograph provides direct, visual confirmation of the previously presented data: that is, that oral nicarbazin dosages reduces the ZP3 content of the oocyte membrane.

[2] = system: fruit fly; assay: Nicarbazin in fruit fly media; format: in vivo; settings: ethanol carrier
Procedure: According to the invention, nicarbazin specifically influences the expression of the zona pellucida 3 gene and protein in vertebrates. It is expected that other homologs of the ZP3 gene will also be negatively affected by nicarbazine. For example, there is an insect homolog of ZP3 that is a structural component of the wing vein. Nicarbazin interferes with the expression of the insect homolog in the same manner as the vertebrate Gene.
In a quick experiment, 3-5% nicarbazin preparation was added to the media (food) in fruit fly vials using ethanol as a carrier (since fruit flies are attracted to ethanol).

[3] = system: chicken ZPC; assay: Western blot for chicken ZPC in isolated hen granulosa cells treated with nicarbazin; format: cell-based
Procedure: FIG. 1 is a Western blot of chicken ZPC proteins.
In a preliminary effort to support this hypothesis, we isolated granulosa cells from primary follicles of a laying hen, and suspended them in a simple cell culture media (1 ml medium (M)199-HEPES supplemented with Hank salts (Gibco-BRL) plus 1 ml Dulbecco modified Eagle medium (DMEM) containing 5% FBS). […] The cells were then disrupted with a sonicator and proteins precipitated and heat solubilized per Barbato et al. (1998). Proteins were concentrated, separated via gel electrophoresis and western blot performed with antibodies to chicken ZPC.

[4] = system: mice; assay: Direct feeding experiment with mating pairs of mice; format: in vivo, mouse
Procedure: The indirect biochemical evidence in the previous section led us to attempt a direct feeding experiment with mice. In this case, mice were fed a 0.5% nicarbazin diet (containing 5% propylene glycol). In addition, 7.5% peanut butter was added to the diet to increase palatability. Ten mating pairs of mice were given access to the diet for 4-5 hrs over a […].

[5] = system: sperm attaching to the oocyte; assay: Sperm count on oocyte membrane of eggs from fed, inseminated ducks; format: in vivo, duck; settings: membranes of eggs from nicarbazin-treated ducks
Description: (§1) [Images were taken at 20× magnification with DAPI fluorescent stain.]
Since there appeared to be a decrease in the amount of ZPC (the primary sperm receptor) present in the duck oocyte membranes, we reasoned that the lack of fertility in any laid eggs should be due to a decline in sperm attaching to the oocyte. FIG. 5 illustrates a pair of sample membranes from both control and nicarbazin treated ducks. Consistent with previous data from our lab (e.g., Barbato et al., 1998) 228±15 sperm/mm2 of oocyte membrane were found in eggs from control ducks, whereas there were 0±15 sperm/mm2 counted on the membranes from nicarbazin-treated ducks.

[6] = system: FDRL rats; settings: high dose (300 mg/kg bw per day phenylurea, 100 mg/kg bw per day pyrimidone), F2a and F3a litters; cited from earlier work
[7] = system: ZPC; assay: Western blot of ZPC in oocyte (perivitelline) membrane of laid eggs from fed ducks; format: in vivo, duck
Description: Drug feeding began in Week 2; making Week 1 and internal control.
A subsample of eggs were collected during each week of the experiment, in order to dissect, extract and identify the ZPC in the oocyte membrane using and anti-ZPC antibody and western blotting technique. FIG. 4 illustrates that at the 500 ppm dose of nicarbazin, ZPC was undetectable after the 1st week of treatment, and remained absent thereafter.

[8] = DNC concentrations in blood and laid eggs of ducks fed nicarbazin; format: in vivo, duck; settings: 31.25-500 ppm in feed
Description: (§2) Our first study determined the dose-response relationship for the effect of nicarbazin in reducing egg production and/or hatchability in ducks.

[9] = system: rat ZPC mRNA; assay: Quantitative rtPCR of ZPC (ZP3) mRNA copy number in rat ovarian tissue; format: in vivo
Description: (§3) In an attempt to increase nicarbazin absorption in a mammalian species we paired nicarbazin with a typical pharmaceutical carrier, 5% propylene glycol (PGC). A 500 ppm dose was fed to 8 adult, female rats for a 7-day period, at which time the rats were killed and the ovaries removed and placed in RNAlater (to preserve protein, RNA and DNA—4 control rats were also sacrificed). Ovarian proteins and mRNA were extracted via standard laboratory protocols. FIG. 7 illustrates the results of a western blot for ZPC, using a murine monoclonal antibody (which cross-reacts with rat ZPC).
Upon finding a reduction in ZPC-immunoreactive band intensity from ovarian samples obtained from treated animals, we designed PCR primers to identify mRNA for rat ZPC. By applying the quantitative rtPCR technique we were able to estimate the number of copies of the ZPC mRNA that were present in the ovarian tissue samples.

[10] = system: broiler-breeder hens; settings: cited from earlier work
[11] = system: rat ZPC; assay: Western blot for ZPC in rat ovarian tissue after 1 week of nicarbazin feeding; format: in vivo; settings: 500 ppm with 5% propylene glycol, band at approx. 50 kDa
Description: FIG. 7 is a Western Blot (using mouse ZPC monoclonal antibody) of rat ovarian tissue after 1 week of nicarbazin feeding. [mZPC-mab 1:2000; similar results obtained with dilution of 1:5000 and 1:10000.
as §3

[12] = system: Pekin Ducks; assay: Dose-response feeding study in Pekin ducks: egg production and fertility; format: in vivo, duck
Description: FIG. 3 depicts the fertility of laid eggs obtained from Pekin Ducks fed varying doses of nicarbazin.
as §1, §2
Since all hens in this experiment were artificially inseminated with sperm from untreated drakes, the effects on subsequent fertility were considered to be due entirely to the effect of nicarbazin on the female ducks. […] Further, upon the withdrawal of nicarbazin-treated feed, even the hens receiving the highest dose of nicarbazin returned to normal egg production and fertility within 10 days.

## equimolar complex of 1,3-N,N′-bis(4-nitrophenyl)urea and 4,6-dimethyl-2(1H)-pyrimidone [nicarbazin]
[1]
  width of the inner perivitelline membrane (electron micrograph): reduction in width
[2]; 3% nicarbazin preparation in media
  fly phenotype: deformed wings and could not fly
[2]; 5% nicarbazin preparation in media
  hatching of fruit fly eggs: did not hatch
[3]; 100 mM nicarbazin, granulosa cells
  cell viability: all cells were dead
[3]; granulosa cells from primary follicles of a laying hen, lanes 4-6 (1, 10, 100 mM nicarbazin)
  immunoreactive ZPC (western blot): absence of immunoreactive ZPC
[4]; mice, 0.5% nicarbazin diet with 5% propylene glycol and 7.5% peanut butter, ten mating pairs, non-treated 90%
  conception rate: 10%
[4]; mice, 0.5% nicarbazin diet, non-treated averaging 6 pups per litter
  pups per litter: 0.2 pups/litter
[4]; previously treated mice mated over the next month
  reversibility after removal of treated feed: conceived normal litters
[4]; pups of treated mice
  teratogenic effects in pups: no sign of teratogenic effects
[5]
  sperm on oocyte membrane: 0±15 sperm/mm2
[6]
  litter size: slightly fewer pups
[7]; 250 ppm dose, over time
  ZPC in oocyte membrane (western blot): clear decline in the intensity of ZPC
[7]; 500 ppm dose, after the 1st week of treatment
  ZPC in oocyte membrane (western blot): undetectable
[8]
  DNC concentrations in blood and laid eggs versus fed nicarbazin dose: linear dose-concentration relationship
[9]; individual rats fed nicarbazin 500 ppm for 1 week, ovarian tissue
  ZP3 mRNA copy number, mean of triplicate estimate per rat: 0.47 and 0.95 (2×) and 0.75 and 0.50 and 0.85 and 0.77
[9]; rats fed nicarbazin for 1 week, ovarian tissue, control overall mean 1.00, P = 0.03
  ZP3 mRNA copy number, overall mean: 0.71
[9]; rats fed nicarbazin versus control
  reduction in copy number of the ZPC gene: 30%
[10]; after removal from the feed
  time to return of normal hatchability and egg production after removal of nicarbazin from feed: 7 to 10 days
[10]; higher levels (ca. 700 ppm) in feed
  egg production: eliminated egg production entirely
[10]; lower levels of nicarbazin (<125 ppm) in feed
  hatchability of fertile eggs: significant reduction in hatchability
[11]
  ZPC immunoreactive band intensity (western blot): reduction in intensity
[12]; 500 ppm nicarbazin ducks, inseminated with 200 million sperm, of 5 eggs set
  fertility of eggs: 20%
[12]; ducks fed 31.25-500 ppm, FIG. 2
  egg production: decline in egg production
[12]; highest dose, after withdrawal of nicarbazin-treated feed
  time to return to normal egg production and fertility after withdrawal: ≤ 10 days
[12]; oral doses 31.25-500 ppm, hens inseminated with sperm from untreated drakes, FIG. 3
  fertility of eggs laid by treated hens: profound effect
